The nature of data set [1]: Hygroscopic property evaluation of pemafibrate crystal (Karl Fischer moisture content). The format is physicochemical. The protocol:
A pemafibrate crystal was produced by recrystallizing pemafibrate from an ethyl acetate/heptane mixture in accordance with the method for producing a pemafibrate crystal as described in Non-Patent Document 1.
250 mg of the pemafibrate crystal was placed in a dish, and stored in an uncapped state (open state) in a dark place at 25° C. and 83% relative humidity (RH) for 3 months. The hygroscopic property was evaluated by measuring the moisture contents before and after the storage. The measurement of the moisture content was performed by a coulometric titration method in accordance with The Japanese Pharmacopoeia, 17th Edition, Moisture Content Measurement Method (Karl Fischer Method).

A short description of data set [2]: Examination of stability of pemafibrate (open dish storage, related substances by HPLC). The format is physicochemical. The protocol: 250 mg of pemafibrate was placed in a dish, and stored in an uncapped state (open state) in a dark place at 40° C. and 75% relative humidity (RH) for 3 months.
The sum of related substance-derived peak areas was evaluated in terms of a ratio (%) to the pemafibrate-derived peak area using an HPLC apparatus, and the ratio was defined as the “Total amount (%) of related substances”.

Where only a bound is given, the exact number is not on record here.

For `CC[C@@H](Oc1cccc(CN(CCCOc2ccc(OC)cc2)c2nc3ccccc3o2)c1)C(=O)O` [Pemafibrate crystal, (2R)-2-[3-([1,3-Benzoxazol-2-yl[3-(4-methoxyphenoxy)propyl]amino]methyl)phenoxy]butanoic acid], the “Moisture content (%)” value in data set [1] (After storage at 25° C. and 83% RH for 3 months, open state in dish, dark place) is listed as <0.1%; in data set [1] (Before storage, 250 mg in dish), <0.1%. In addition, the Hygroscopic property entry in data set [1] (storage at 83% RH for 3 months) is reported as “not hygroscopic”.
On to `CC[C@@H](Oc1cccc(CN(CCCOc2ccc(OC)cc2)c2nc3ccccc3o2)c1)C(=O)O` [Pemafibrate, (2R)-2-[3-([1,3-Benzoxazol-2-yl[3-(4-methoxyphenoxy)propyl]amino]methyl)phenoxy]butanoic acid], for which the “Total amount (%) of related substances” value was <0.05% in data set [2] (After storage at 40° C. and 75% RH for 3 months, open state in dish, dark place); <0.05% in data set [2] (Before storage, 250 mg in dish). Also, the “Stability against moisture content” value in data set [2] (storage at 75% RH for 3 months) is “stable”.
